How the values were obtained:
[1] = Solubility of compounds in 50 mM phosphate buffer pH 7.4 by HPLC; assay type: physicochemical
Description: Solubility is calculated using the following formula: […]

[2] = tested on: mouse model of ARDS; settings: treatment with classical KCa3.1 inhibitors; cited from earlier work
[3] = statement in words; cited from earlier work
[4] = biological target: erythrocyte KCa3.1 channels (Homo sapiens (Human), UniProt O15554); experiment: Erythrocyte KCa3.1 assay; assay type: cell-based; settings: human erythrocytes, A23187-activated, 37° C.; read-out: RBC K (in vitro) Human IC50
Description: Human blood was drawn from healthy human volunteers in a standard heparinized blood sampling vial (Vacutainer, Li/heparin, BD Bioscience, Plymouth, UK). The erythrocytes were packed by centrifugation, and the plasma and buffy coat were removed by aspiration. Erythrocytes were washed three times in the experimental salt solution and then stored at 0° C. until use. Blood samples from NMRI mice or from Wistar rats were treated similarly. The methodological principle is outlined in Macey et al. (1978) and further described in Strøbæk et al. (2013). Activation of the erythrocyte KCa3.1 channels were obtained by addition of the Ca^2+ ionophore A23187, which causes synchronized hyperpolarization, which is reported as a CCCP-mediated shift in the unbuffered extracellular pH of the erythrocyte suspension. Standard procedure: 3 mL unbuffered experimental salt solution (in mM: 2 KCl, 154 NaCl, 0.05 CaCl2) was heated to 37° C. with stirring. Packed erythrocytes were added (50 μL, final cytocrit 1.5%), and the extracellular pH (pHo) followed with a glass/calomel (pHG200-8/REF200, Radiometer, Denmark) electrode pair. CCCP (3 μL, final concentration 20 μM) was added followed by varying concentrations of test compounds (DMSO concentration constant). After pH stabilization at ˜7.2, A23187 (3 μL, final concentration 0.33 μM) was added to initiate the experiment. After the peak hyperpolarization was attained, the intracellular pH (pHi constant during the experiment) was found by haemolysing the erythrocytes via addition of 100 μL of Triton-X100.
The erythrocyte membrane potential, Vm, was calculated according to: Vm=−61.5 mV×(pHo−pHi) and the fractional remaining Ca^2+-activated K^+-conductance at the concentration C of blocker, fGK(C), was calculated from
[formula] where the K^+ equilibrium potential EK=−107 mV, the Cl^− equilibrium potential ECl=−12 mV and the Vm(0) and Vm(C) are the peak hyperpolarizations in the control and in the presence of a concentration of C of blocker respectively.
IC50 values for compounds were calculated from a plot of fGK(C) versus C by a fit to the Hill equation, using a custom program written in the IGOR-Pro software (WaveMetrics, Lake Oswego, OR, USA). All IC50-values are reported in μM.

[5] = 50 mM potassium phosphate buffer pH 7.40, 16 hr at ~25° C., 1600 μM incubation concentration

Structure (SMILES) | IC50 [4] [nM] | Measured Solubility in pH 7.4 phosphate buffer (mg/ml) [1, 5] [mg/ml] | Measured Solubility in pH 7.4 phosphate buffer (μM) (rounded) [1, 5] | also measured
O=C1CSc2ccccc2N1Cc1cccc(C(F)(F)F)c1 [NS6180, 4-[[3-(Trifluoromethyl)-phenyl]methyl]-2H-1,4-benzothiazin-3(4H)-one, reference compound] |  |  |  | Measured Solubility in pH 7.4 phosphate buffer (mg/ml) ([1]; 16 h, pH 7.4): 0.0009 mg/ml
Clc1ccccc1C(c1ccccc1)(c1ccccc1)n1cccn1 [TRAM-34] |  |  |  | Gas exchange in mouse model of ARDS [2]: improved gas exchange; Water solubility [3]: extremely low water solubility
COC(=O)N(CCN(C)C)C1(c2ccc(F)c(C(F)(F)F)c2)CC1 [[1], Methyl N-(2-(dimethylamino)ethyl)-N-(1-(4-fluoro-3-(trifluoromethyl)phenyl)cyclopropyl) carbamate] | 330 | 0.5409 | 1600 | 
COC(=O)N(CC(C)(C)N)C1(c2ccc(F)c(C(F)(F)F)c2)CC1 [[2], Methyl (2-amino-2-methylpropyl)(1-(4-fluoro-3-(trifluoromethyl)phenyl)cyclopropyl)carbamate] | 86 |  |  | Measured Solubility in pH 7.4 phosphate buffer (μM) (rounded) ([1]; 16 h, pH 7.4): 1600 μM
COC(=O)N(CC1(N)CC1)C1(c2ccc(F)c(C(F)(F)F)c2)CC1 [[3], Methyl ((1-aminocyclopropyl)methyl)(1-(4-fluoro-3-(trifluoromethyl)phenyl)cyclopropyl) carbamate] | 160 | 0.5599 | 1600 | 
CC(C)(N)CN(CC1CC1)C1(c2ccc(F)c(C(F)(F)F)c2)CC1 [[8], N1-(cyclopropylmethyl)-N1-(1-(4-fluoro-3-(trifluoromethyl)phenyl)cyclopropyl)-2-methyl propane-1,2-diamine] | 14 |  |  | Measured Solubility in pH 7.4 phosphate buffer (μM) (rounded) ([1]; 16 h, pH 7.4): 1500 μM
CN1CCC1CN(CC(C)(C)O)C1(c2ccc(F)c(C(F)(F)F)c2)CC1 (stereo not drawn) [[16], 1-((1-(4-fluoro-3-(trifluoromethyl)phenyl)cyclopropyl)((1-methylazetidin-2-yl)methyl)amino)-2-methylpropan-2-ol] | 400 |  |  | Measured Solubility in pH 7.4 phosphate buffer (μM) (rounded) ([1]; 16 h, pH 7.4): 1600 μM
COC(=O)N(CC(C)(C)N)C1(c2cc(C(F)(F)F)c(F)cn2)CC1 [[17], Methyl (2-amino-2-methylpropyl)(1-(5-fluoro-4-(trifluoromethyl)pyridin-2-yl)cyclopropyl) carbamate] | 400 | 0.5636 | 1500 | 
COC(=O)N(C[C@@H]1CCCN1C)C1(c2ccc(F)c(C(F)(F)F)c2)CC1 [[27], Methyl (S)-(1-(4-fluoro-3-(trifluoromethyl)phenyl)cyclopropyl) ((1-methylpyrrolidin-2-yl)methyl) carbamate] | 300 | 0.5918 | 1600 | 
COC(=O)N(C[C@H]1CCCN1C)C1(c2ccc(F)c(C(F)(F)F)c2)CC1 [[31], Methyl (R)-(1-(4-fluoro-3-(trifluoromethyl)phenyl)cyclopropyl)((1-methylpyrrolidin-2-yl)methyl)carbamate] | 81 |  |  | Measured Solubility in pH 7.4 phosphate buffer (μM) (rounded) ([1]; 16 h, pH 7.4): 1500 μM
CCOC(=O)N(C[C@@H]1CCCN1C)C1(c2ccc(F)c(C(F)(F)F)c2)CC1 [[35], Ethyl (S)-(1-(4-fluoro-3-(trifluoromethyl)phenyl)cyclopropyl)((1-methylpyrrolidin-2-yl)methyl) carbamate] | 110 | 0.5679 | 1500 | 
CS(=O)(=O)N(C[C@@H]1CCCN1)C1(c2ccc(F)c(C(F)(F)F)c2)CC1 [[36], (S)—N-(1-(4-fluoro-3-(trifluoromethyl)phenyl)cyclopropyl)-N-(pyrrolidin-2-ylmethyl) methanesulfonamide] | 320 | 0.3218 | 800 | 
COC(=O)N(C[C@H]1COCCN1)C1(c2ccc(F)c(C(F)(F)F)c2)CC1 [[42], Methyl (S)-(1-(4-fluoro-3-(trifluoromethyl)phenyl)cyclopropyl)(morpholin-3-ylmethyl) carbamate] | 340 | 0.6118 | 1500 | 
CC(C)OC(=O)N(C[C@@H]1CCCN1)C1(c2ccc(F)c(C(F)(F)F)c2)CC1 [[44], Isopropyl (S)-(1-(4-fluoro-3-(trifluoromethyl)phenyl)cyclopropyl)(pyrrolidin-2-ylmethyl)carbamate] | 200 |  |  | Measured Solubility in pH 7.4 phosphate buffer (μM) (rounded) ([1]; 16 h, pH 7.4): 1600 μM
COC(=O)N(C[C@@]1(C)CCCN1)C1(c2ccc(F)c(C(F)(F)F)c2)CC1 [[46], Methyl (R)-(1-(4-fluoro-3-(trifluoromethyl)phenyl)cyclopropyl)((2-methylpyrrolidin-2-yl)methyl)carbamate] | 100 |  |  | 
NC1(CNC2(c3ccc(F)c(C(F)(F)F)c3)CC2)CC1 [[47], N-((1-aminocyclopropyl)methyl)-1-(4-fluoro-3-(trifluoromethyl)phenyl)cyclopropan-1-amine] | 220 |  |  | 
O=C(OCC1CC1)N(C[C@@H]1CCCN1)C1(c2ccc(F)c(C(F)(F)F)c2)CC1 [[48], Cyclopropylmethyl (S)-(1-(4-fluoro-3-(trifluoromethyl)phenyl)cyclopropyl)(pyrrolidin-2-ylmethyl)carbamate] | 230 |  |  | 
CS(=O)(=O)N(CC1(N)CC1)C1(c2ccc(F)c(C(F)(F)F)c2)CC1 [[49], N-((1-aminocyclopropyl)methyl)-N-(1-(4-fluoro-3-(trifluoromethyl)-phenyl)cyclopropyl)methanesulfonamide] | 390 |  |  | 
COC(=O)N(C[C@]1(C)CCCN1)C1(c2ccc(F)c(C(F)(F)F)c2)CC1 [[50], Methyl (S)-(1-(4-fluoro-3-(trifluoromethyl)phenyl)cyclopropyl)((2-methylpyrrolidin-2-yl)methyl)carbamate] | 150 |  |  | 
N[C@H]1CCC[C@@H]1NC1(c2ccc(F)c(C(F)(F)F)c2)CC1 [[51], (1S, 2S)—N1-(1-(4-fluoro-3-(trifluoromethyl)phenyl)cyclopropyl)-cyclopentane-1,2-diamine] | 410 |  |  | 
N[C@H]1CCC[C@H]1NC1(c2ccc(F)c(C(F)(F)F)c2)CC1 [[52], (1R,2S)—N1-(1-(4-fluoro-3-(trifluoromethyl)phenyl)cyclopropyl)-cyclopentane-1,2-diamine] | 93 |  |  | 
COC(=O)N(C[C@@H]1CCN1)C1(c2ccc(F)c(C(F)(F)F)c2)CC1 [[53], Methyl (S)-(azetidin-2-ylmethyl)(1-(4-fluoro-3-(trifluoromethyl)phenyl)-cyclopropyl)carbamate] | 360 |  |  | Measured Solubility in pH 7.4 phosphate buffer (μM) (rounded) ([1]; 16 h, pH 7.4): 1700 μM
NC(=O)C(c1ccccc1)(c1ccc(F)cc1)c1ccc(F)cc1 [senicapoc] |  |  |  | Gas exchange in mouse model of ARDS [2]: improved gas exchange; Water solubility [3]: extremely low water solubility

From patent US12006289B2, “Potassium channel inhibitors” (Saniona A/S, priority 2019, dated 2024)
